Experimental data: article PMC10247784, “Physiological activation of human and mouse bitter taste receptors by bile acids” (Communications Biology, 2023)
Like-named read-outs stand apart in the source and are kept apart here.

Target: T1, mouse Tas2r117 (Mus musculus, UniProt Q7M715)
T1 construct: expressed in transfected cells; host or cells: HEK293T-Gα16gust44
T1 sequence (Q7M715 1-330): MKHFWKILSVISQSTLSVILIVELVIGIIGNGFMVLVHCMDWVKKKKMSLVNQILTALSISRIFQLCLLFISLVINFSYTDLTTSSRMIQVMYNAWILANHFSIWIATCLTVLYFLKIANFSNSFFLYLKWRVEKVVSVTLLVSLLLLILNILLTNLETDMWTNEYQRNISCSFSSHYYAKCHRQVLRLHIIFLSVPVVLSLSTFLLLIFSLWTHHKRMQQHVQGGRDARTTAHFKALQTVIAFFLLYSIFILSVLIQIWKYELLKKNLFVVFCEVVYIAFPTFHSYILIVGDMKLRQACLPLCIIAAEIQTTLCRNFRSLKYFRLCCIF
Test: Calcium imaging assay (FLIPR), HEK293T-Gα16gust44 cells transfected with mouse Tas2r117
Type: cell-based
Method: This set of bile acids was chosen because of their commercial availability in high purities, their diversity within the class of bile acids and their previous detection and quantitation in human blood. Stock solutions were prepared in DMSO.
As basal growth medium for the HEK293T-Gα16gust44 cell line[17],[59] served Dulbecco’s modified eagle medium (DMEM) (Thermo Fisher Scientific, Darmstadt, Germany) supplemented with 10 % fetal bovine serum (Sigma-Aldrich, Steinheim, Germany), 2 mM L-glutamine (Sigma-Aldrich, Steinheim, Germany), 100 units/ml penicillin (Sigma Aldrich, Steinheim, Germany) and 100 µg/ml streptomycin (Sigma Aldrich, Steinheim, Germany). Growth conditions were 37 °C, 5 % CO2 and saturated air-humidity[60].
HEK293T-Gα16gust44 cells were seeded on poly-D-lysine (10 µg/ml) coated 96-well plates to reach a confluence of 40-60 % the next day. For transient transfection 150 ng of plasmid DNA containing the receptor of interest and 0.3 µl lipofectamine 2000 (Thermo Fisher Scientific, Darmstadt, Germany) per well were used and transfection took place according to the manual of lipofectamine 2000. […] The empty vector DNA (mock) was transfected as negative control[14],[41].
Cells were loaded using the calcium-sensitive fluorescent dye Fluo-4-AM (Abcam, Cambridge, Great Britain) in the presence of 2.5 mM probenecid (Sigma-Aldrich, Steinheim, Germany) the day after transfection[13],[41]. 1 h after loading, cells were washed with C1 buffer using a BioTek Cell Washer, incubated in the dark for half an hour and washed again. For automated agonist application and measurement of fluorescence changes, a FLIPR^TETRA device (Molecular Devices, San José, United States) was used. Viability of cells was tested by application of 100 nM Somatostatin 14 (Bachem, Bubendorf, Switzerland)[42].
Measured data were negative control corrected by subtracting the signal of the mock-transfected cells and exported to Microsoft Excel using the FLIPR software ScreenWorks 4.2. In Microsoft Excel software, standardization of maximum fluorescence intensities to the basal fluorescence and normalization to the buffer-only control was done to calculate the relative fluorescence changes (ΔF/F).
Initial screening experiments performed in duplicate wells were confirmed by at least one replication and representative traces were selected for display. All dose-response relationships were determined by three independent experiments (biological replicates) performed in duplicates (technical replicates). Threshold concentrations, defined as lowest substance concentrations leading to statistically significant elevated fluorescence changes in receptor-transfected cells compared with empty vector-transfected cells, were determined using SigmaPlot with Student’s t-test to evaluate statistical significance (p < 0.01).

Compound: C[C@H](CCC(=O)O)[C@H]1CC[C@H]2[C@@H]3[C@H](O)C[C@@H]4C[C@H](O)CC[C@]4(C)[C@H]3C[C@H](O)[C@]12C [Cholic Acid, cholic acid]
- EC50: 20.6 ± 5.1 µM
- RLU: 487.07 RLU
- RLU (Time (s) 0, sheet Tas2r117, time trace): 0 RLU
- RLU (Time (s) 2, sheet Tas2r117, time trace): 4.604 RLU
- RLU (Time (s) 4, sheet Tas2r117, time trace): 10.2904 RLU
- RLU (Time (s) 6, sheet Tas2r117, time trace): -0.8806 RLU
- RLU (Time (s) 8, sheet Tas2r117, time trace): 6.861 RLU
- RLU (Time (s) 12, sheet Tas2r117, time trace): -14.1517 RLU
- RLU (Time (s) 14, sheet Tas2r117, time trace): 7.665 RLU
- RLU (Time (s) 16, sheet Tas2r117, time trace): -9.341 RLU
- RLU (Time (s) 18, sheet Tas2r117, time trace): -12.0783 RLU
- RLU (Time (s) 18.797, sheet Tas2r117, time trace): -24.6076 RLU
- RLU (Time (s) 20.797, sheet Tas2r117, time trace): -3.383 RLU
- RLU (Time (s) 22.797, sheet Tas2r117, time trace): 39.9085 RLU
- RLU (Time (s) 24.797, sheet Tas2r117, time trace): 65.6016 RLU
- RLU (Time (s) 26.797, sheet Tas2r117, time trace): 75.6489 RLU
- RLU (Time (s) 28.797, sheet Tas2r117, time trace): 128.888 RLU
- RLU (Time (s) 30.797, sheet Tas2r117, time trace): 168.759 RLU
- RLU (Time (s) 32.797, sheet Tas2r117, time trace): 221.976 RLU
- RLU (Time (s) 34.797, sheet Tas2r117, time trace): 270.035 RLU
- RLU (Time (s) 36.797, sheet Tas2r117, time trace): 288.662 RLU
- RLU (Time (s) 38.797, sheet Tas2r117, time trace): 310.785 RLU
- RLU (Time (s) 40.797, sheet Tas2r117, time trace): 342.959 RLU
- RLU (Time (s) 42.797, sheet Tas2r117, time trace): 363.04 RLU
- RLU (Time (s) 44.797, sheet Tas2r117, time trace): 380.411 RLU
- RLU (Time (s) 46.797, sheet Tas2r117, time trace): 395.355 RLU
- RLU (Time (s) 48.797, sheet Tas2r117, time trace): 398.151 RLU
- RLU (Time (s) 50.797, sheet Tas2r117, time trace): 423.224 RLU
- RLU (Time (s) 52.797, sheet Tas2r117, time trace): 441.862 RLU
- RLU (Time (s) 54.797, sheet Tas2r117, time trace): 446.522 RLU
- RLU (Time (s) 56.797, sheet Tas2r117, time trace): 453.199 RLU
- RLU (Time (s) 58.797, sheet Tas2r117, time trace): 444.318 RLU
- RLU (Time (s) 60.797, sheet Tas2r117, time trace): 456.236 RLU
- RLU (Time (s) 62.797, sheet Tas2r117, time trace): 461.012 RLU
- RLU (Time (s) 64.797, sheet Tas2r117, time trace): 474.623 RLU
- RLU (Time (s) 66.797, sheet Tas2r117, time trace): 445.559 RLU
- RLU (Time (s) 70.797, sheet Tas2r117, time trace): 480.113 RLU
- RLU (Time (s) 72.797, sheet Tas2r117, time trace): 466.131 RLU
- RLU (Time (s) 74.797, sheet Tas2r117, time trace): 473.506 RLU
- RLU (Time (s) 76.797, sheet Tas2r117, time trace): 498.186 RLU
- RLU (Time (s) 78.797, sheet Tas2r117, time trace): 506.034 RLU
- RLU (Time (s) 80.797, sheet Tas2r117, time trace): 507.589 RLU
- RLU (Time (s) 82.797, sheet Tas2r117, time trace): 514.994 RLU
- RLU (Time (s) 84.797, sheet Tas2r117, time trace): 484.679 RLU
- RLU (Time (s) 86.797, sheet Tas2r117, time trace): 500.585 RLU
- RLU (Time (s) 88.797, sheet Tas2r117, time trace): 496.095 RLU
- RLU (Time (s) 90.797, sheet Tas2r117, time trace): 517.962 RLU
- RLU (Time (s) 92.797, sheet Tas2r117, time trace): 513.104 RLU
- RLU (Time (s) 94.797, sheet Tas2r117, time trace): 501.803 RLU
- RLU (Time (s) 96.797, sheet Tas2r117, time trace): 495.693 RLU
- RLU (Time (s) 98.797, sheet Tas2r117, time trace): 496.063 RLU
- RLU (Time (s) 100.797, sheet Tas2r117, time trace): 476.828 RLU
- RLU (Time (s) 102.797, sheet Tas2r117, time trace): 478.659 RLU
- RLU (Time (s) 104.797, sheet Tas2r117, time trace): 493.353 RLU
- RLU (Time (s) 106.797, sheet Tas2r117, time trace): 481.214 RLU
- RLU (Time (s) 108.797, sheet Tas2r117, time trace): 477.549 RLU
- RLU (Time (s) 110.797, sheet Tas2r117, time trace): 489.03 RLU
- RLU (Time (s) 112.797, sheet Tas2r117, time trace): 467.178 RLU
- RLU (Time (s) 114.797, sheet Tas2r117, time trace): 460.468 RLU
- RLU (Time (s) 116.797, sheet Tas2r117, time trace): 475.775 RLU
- RLU (Time (s) 118.797, sheet Tas2r117, time trace): 475.734 RLU
- RLU (Time (s) 120.797, sheet Tas2r117, time trace): 478.85 RLU
- RLU (Time (s) 122.797, sheet Tas2r117, time trace): 455.77 RLU
- RLU (Time (s) 124.797, sheet Tas2r117, time trace): 448.646 RLU
- RLU (Time (s) 126.797, sheet Tas2r117, time trace): 473.935 RLU
- RLU (Time (s) 128.797, sheet Tas2r117, time trace): 443.919 RLU
- RLU (Time (s) 130.797, sheet Tas2r117, time trace): 439.491 RLU
- RLU (Time (s) 132.797, sheet Tas2r117, time trace): 446.634 RLU
- RLU (Time (s) 134.797, sheet Tas2r117, time trace): 438.919 RLU
- RLU (Time (s) 136.797, sheet Tas2r117, time trace): 440.652 RLU
- RLU (Time (s) 137.562, sheet Tas2r117, time trace): 432.872 RLU
- RLU (Time (s) 143.578, sheet Tas2r117, time trace): 412.03 RLU
- RLU (Time (s) 149.578, sheet Tas2r117, time trace): 376.064 RLU
- RLU (Time (s) 155.578, sheet Tas2r117, time trace): 372.116 RLU
- RLU (Time (s) 161.578, sheet Tas2r117, time trace): 346.14 RLU
- RLU (Time (s) 167.578, sheet Tas2r117, time trace): 348.952 RLU
- RLU (Time (s) 173.578, sheet Tas2r117, time trace): 334.535 RLU
- RLU (Time (s) 179.578, sheet Tas2r117, time trace): 329.157 RLU
- RLU (Time (s) 191.578, sheet Tas2r117, time trace): 289.619 RLU
- RLU (Time (s) 197.578, sheet Tas2r117, time trace): 289.013 RLU
- RLU (Time (s) 209.578, sheet Tas2r117, time trace): 239.803 RLU
- RLU (Time (s) 221.578, sheet Tas2r117, time trace): 142.758 RLU
- RLU (Time (s) 233.578, sheet Tas2r117, time trace): 144.622 RLU
- RLU (Time (s) 239.578, sheet Tas2r117, time trace): 165.061 RLU
- RLU (Time (s) 245.578, sheet Tas2r117, time trace): 139.32 RLU
- RLU (Time (s) 293.578, sheet Tas2r117, time trace): 116.805 RLU
- RLU (Time (s) 299.578, sheet Tas2r117, time trace): 113.227 RLU
- RLU (Time (s) 305.578, sheet Tas2r117, time trace): 94.7752 RLU
- RLU (Time (s) 311.578, sheet Tas2r117, time trace): 118.792 RLU
- RLU (Time (s) 317.578, sheet Tas2r117, time trace): 98.6072 RLU
- RLU (Time (s) 323.578, sheet Tas2r117, time trace): 115.27 RLU
- RLU (Time (s) 329.578, sheet Tas2r117, time trace): 87.0157 RLU
- RLU (Time (s) 335.578, sheet Tas2r117, time trace): 73.721 RLU
- RLU (Time (s) 341.578, sheet Tas2r117, time trace): 98.5271 RLU
- RLU (Time (s) 347.578, sheet Tas2r117, time trace): 75.5864 RLU
- RLU (Time (s) 353.578, sheet Tas2r117, time trace): 82.9151 RLU
- RLU (Time (s) 359.578, sheet Tas2r117, time trace): 69.2265 RLU
- Activation threshold concentration Tas2r117 (p < 0.01 vs empty vector): 10 µM
